Source: patent US8552065B2, “Biarylamide derivative and compositions containing the derivative as an active ingredient” (Catholic University Industry Academy Cooperation Foundation, priority 2010, dated 2013)

Tests used:
[1] = tested on: Melan-a cells, that is, mouse melanocytes; test: Melanin production inhibition by biarylamide derivatives in melan-a cells (Example 2-2); assay type: cell-based; conditions: 30 mM derivative, 10 μl per day for 3 days, final concentration 300 μM, absorbance 400 nm
Procedure: Melan-a cells, that is, mouse melanocytes, were inoculated onto a 24-well culture plate (10^5 cells), and cultured in RPMI1640 medium including fetal bovine serum (FBS) 10% and 200 nM of phorbol 12-myristate 13-acetate (TPA) for 24 hours. Then, in each well, 990 μl of RPMI1640 medium including FBS 10% and 200 nM TPA was treated with 30 mM of the inventive biarylamide derivative (10 μl per day for 3 days) (final concentration 300). The last day of treatment, the cells were washed with Phosphate buffered saline (PBS) three times, lysed with 1 ml of 1M sodium hydroxide (NaOH) solution, and measured using ELISA Leader at absorbance of 400 nm.

[2] = tested on: human normal melanocytes; test: Melanin production inhibition by A3/B5 in human normal melanocytes (Example 3); assay type: cell-based; conditions: A3/B5 treatment per day for 3 days, final concentration 1, 10, and 25 (unit not given), FIG. 1B
Procedure: (§1) In order to examine the effect of A3/B5 on melanin inhibition, the degree of melanin production was analyzed using melan-a cells, that is, mouse melanocytes and human normal melanocytes. Melanocytes were inoculated onto a 24-well culture plate (10^5 cells) and cultured in RPMI1640 medium including fetal bovine serum (FBS) 10% and 200 nM of phorbol 12-myristate 13-acetate (TPA) for 24 hours. Then, in each well, 990 μl of RPMI1640 medium including FBS 10% and 200 nM TPA was treated with
(§2) 100, 1000, and 2500 of A3/B5 (10 μl per day for 3 days) (final concentration 1, 10, and 25). The last day of treatment, the cells were washed with Phosphate buffered saline (PBS) three times, lysed with 1 ml of 1M sodium hydroxide (NaOH) solution, and measured using ELISA Leader at absorbance of 400 nm. Additionally, in order to determine if the inhibition of melanin production is caused by apoptosis, cell viability was examined under the same condition as described above. For this, The last day of treatment, the cells were washed with phosphate buffered saline (PBS) three times, and the cells in each well were stained with 200 μl of Crystal Violet (0.1%, EtOH 10%, PBS 89.9%) for 5 minutes, washed with phosphate buffer, lysed in 1 ml of ethanol solution, and measured at absorbance of 590 nm. Further, this experiment was performed for human normal melanocytes in the same manner.

[3] = tested on: B16F10 mouse melanoma cell; test: B16F10 melanoma cell proliferation in hairless mouse model (Example 6); assay type: in vivo; conditions: hairless mice; 100 μl of 1 mM A3/B5 injected into the cell region for 5 days; sectioned on 6th day; FIG. 4
Procedure: In order to examine the effect of A3/B5 on the inhibition of melanoma cell proliferation, into the back of 5 hairless mice, at both sides of subcutaneous tissues, 5×10^5 B16F10 cells (B16F10 mouse melanoma cell) were injected. Then, 48 hours later, into the region injected with the cells, 100 μl of A3/B5 diluted with phosphate buffer solution to a concentration of 1 mM, and 100 μl of phosphate buffer solution as a control, were injected for 5 days, respectively. On the 6th day, the injected cell region was sectioned and its size and weight were analyzed.

[4] = tested on: TRP-2 (Tyrosinase related protein-2, Dopachrom tautomerase); test: TRP-2 expression in melan-a cells by western blotting (Example 4); assay type: cell-based, mouse; conditions: 50 uM
Procedure: In order to examine the effects of A3/B5 on TRP-2 expression, mouse melanocytes (melan-a) were cultured in RPMI1640 medium including fetal bovine serum (FBS) 10% and 200 nM of phorbol 12-myristate 13-acetate (TPA) for 24 hours, and treated with A3/B5 at a concentration of 50 uM (per day for 3 days). In order to determine the expression level of TRP-2 over 3 days, each test group was lysed in RIPA buffer solution containing 2 mM EDTA, 137 mM NaCl, 20 mM Tris-HCl (pH 8.0), 1 mM sodium vanadate, 10 mM NaF, 1 mM PMSF (phenylmethanesulfonyl fluoride), 1% NP-40, 10% glycerol and a protease inhibitor cocktail, and protein was separated by SDS-PAGE electrophoresis using 10% acrylamide gel. This was transferred to a nylon membrane, and TRP-2 protein was analyzed by anti TRP-2 antibody (santacuz, US) and anti-Rabbit IgG horse Radish Peroxidase (HRP) conjugation antibody (1;10000, zymed) as a secondary antibody. This was detected by Chemiluminescence reagent kit (ECL, Amersham, US) and then imaged using RAS 3000 Imaging system (FUJI film, Japan) as an image analyzer. Further, in a case where the cells were treated with A3B5 once on the first day of 3 consecutive days, the expression level of TRP-2 over 3 days was also analyzed in the same manner as described above.

[5] = tested on: A375 human melanoma cell lines; test: A375 melanoma cell growth inhibition, BrdU cell proliferation assay (Example 5); assay type: cell-based; conditions: respective concentrations, 48 hours, absorbance 450 nm, FIG. 3
Procedure: A375 cells were inoculated onto a 96 well plate (3×10^3 cells), and cultured in DMEM containing fetal bovine serum (FBS) 10% for 16 hours, and then treated with A3/B5 at respective concentrations, and cultured for 48 hours. Then, by using BrdU cell proliferation assay kit (Roche, Germany), the degree of cell growth inhibition by A3/B5 was examined.

[6] = tested on: Melan-a cells, that is, mouse melanocytes; test: Melanin production inhibition by A3/B5 in melan-a cells, with cell viability (Example 3); assay type: cell-based; conditions: A3/B5 treatment per day for 3 days, final concentration 1, 10, and 25 (unit not given), FIG. 1A
Procedure: as §1, §2

Cc1ccc(NC(=O)c2ccc(C)cc2)cc1 [A2/B3, 4-methyl-N-p-tolylbenzamide]
Reduction rate of melanin(%) [1]: 8.6%

Cc1ccc(C(=O)Nc2cccc(C)c2)cc1 [A1/B3, 4-methyl-N-m-tolylbenzamide]
Reduction rate of melanin(%) [1]: 32.6%

COC(=O)c1ccccc1NC(=O)c1ccc(C)cc1 [A12/B3, methyl 2-(4-methylbenzamido)benzoate]
Reduction rate of melanin(%) [1]: 9.4%

CCc1ccc(C(=O)Nc2ccccc2C(=O)OC)cc1 [A12/B4, methyl 2-(4-ethylbenzamido)benzoate]
Reduction rate of melanin(%) [1]: 9.4%

CCc1ccc(C(=O)Nc2cc(C)cc(C)c2)cc1 [A3/B4, N-(3,5-dimethylphenyl)-4-ethylbenzamide]
Reduction rate of melanin(%) [1]: 36.5%

CCCCOc1ccc(NC(=O)c2ccccc2C)cc1 [A11/B1, N-(4-Butoxyphenyl)-2-methylbenzamide]
Reduction rate of melanin(%) [1]: 8.9%

CCc1ccc(C(=O)Nc2cccc(C)c2)cc1 [A1/B4, 4-ethyl-N-m-tolylbenzamide]
Reduction rate of melanin(%) [1]: 23.3%

CC(=O)c1ccc(NC(=O)c2ccc(C)cc2)cc1 [A10/B3, N-(4-acetylphenyl)-4-methylbenzamide]
Reduction rate of melanin(%) [1]: 10.4%

Cc1cccc(NC(=O)c2ccc(C#N)cc2)c1 [A1/B7, 4-cyano-N-m-tolylbenzamide]
Reduction rate of melanin(%) [1]: 34.2%

COC(=O)c1ccc(NC(=O)c2cccc(C)c2)cc1 [A14/B2, Methyl 4-(3-methylbenzamido)benzoate]
Reduction rate of melanin(%) [1]: 30.6%

COc1cccc(C(=O)Nc2cc(C)cc(C)c2)c1 [A3/B5, N-(3,5-dimethylphenyl)-3-methoxybenzamide]
reduction in melanin production content of melanocytes with respect to cell viability, as compared to a non-treated group [2]: about 20%
size of injected B16F10 cell region versus phosphate buffer control [3]: smaller
weight of injected B16F10 cell region versus phosphate buffer control [3]: smaller
expression level of TRP-2 protein as compared to non-treated group ([4]; treated daily for 3 days, FIG. 2A): significant reduction
expression level of TRP-2 protein as compared to non-treated group ([4]; treated only once on the first day of 3 consecutive days, FIG. 2B): significant reduction
Reduction rate of melanin(%) [1]: 48.7%
inhibition on growth of A375 melanoma cells [5]: inhibition on growth of A375 melanoma cells was increased
reduction in melanin production content of melanocytes with respect to cell viability, as compared to a non-treated group [6]: about 40%

COc1ccccc1NC(=O)c1ccccc1C [A4/B1, N-(2-Methoxyphenyl)-2-methylbenzamide]
Reduction rate of melanin(%) [1]: 17.7%

COc1ccc(C(=O)Nc2cccc(C)c2)cc1 [A1/B6, 4-methoxy-N-m-tolylbenzamide]
Reduction rate of melanin(%) [1]: 24.3%

COC(=O)c1ccccc1NC(=O)c1ccc(OC)cc1 [A12/B6, methyl 2-(4-methoxybenzamido)benzoate]
Reduction rate of melanin(%) [1]: 39.0%

COc1ccc(OC)c(NC(=O)c2ccccc2C)c1 [A8/B1, N-(2,5-Dimethoxyphenyl)-2-methylbenzamide]
Reduction rate of melanin(%) [1]: 45.5%

Cc1cc(C)cc(NC(=O)c2ccc(C#N)cc2)c1 [A3/B7, 4-cyano-N-(3,5-dimethylphenyl)benzamide]
Reduction rate of melanin(%) [1]: 50.6%

Cc1ccc(C(=O)Nc2cc(C)cc(C)c2)cc1 [A3/B3, N-(3,5-dimethylphenyl)-4-methylbenzamide]
Reduction rate of melanin(%) [1]: 35.8%
